Experiments:
GSK3B (human) = GSK3B (human) (UniProt P49841); assay: radiometric filter-binding kinase assay
MAP3K7 (human) = MAP3K7 (human) (UniProt O43318); assay: radiometric filter-binding kinase assay
MAPK8 (human) = MAPK8 (human) (UniProt P45983); assay: radiometric filter-binding kinase assay
[1] = system: ABL1 (human), P00519 [M351T]; assay: KINOMEscan competition binding; conditions: compound 1.0 µM
AKT1 (human) = AKT1 (human) (UniProt P31749); assay: KINOMEscan competition binding; conditions: compound 1.0 µM
BLK (human) = BLK (human) (UniProt P51451); assay: KINOMEscan competition binding; conditions: compound 1.0 µM
BRSK2 (human) = BRSK2 (human) (UniProt Q8IWQ3); assay: KINOMEscan competition binding; conditions: compound 1.0 µM
CAMK2G (human) = CAMK2G (human) (UniProt Q13555); assay: KINOMEscan competition binding; conditions: compound 1.0 µM
CSNK1D (human) = CSNK1D (human) (UniProt P48730); assay: KINOMEscan competition binding; conditions: compound 1.0 µM
DAPK1 (human) = DAPK1 (human) (UniProt P53355); assay: KINOMEscan competition binding; conditions: compound 1.0 µM
DAPK3 (human) = DAPK3 (human) (UniProt O43293); assay: KINOMEscan competition binding; conditions: compound 1.0 µM
[2] = system: EGFR (human), P00533 [752-759 del]; assay: KINOMEscan competition binding; conditions: compound 1.0 µM
EPHB6 (human) = EPHB6 (human) (UniProt O15197); assay: KINOMEscan competition binding; conditions: compound 1.0 µM
FES (human) = FES (human) (UniProt P07332); assay: KINOMEscan competition binding; conditions: compound 1.0 µM
FLT1 (human) = FLT1 (human) (UniProt P17948); assay: KINOMEscan competition binding; conditions: compound 1.0 µM
GRK1 (human) = GRK1 (human) (UniProt Q15835); assay: KINOMEscan competition binding; conditions: compound 1.0 µM
GSK3A (human) = GSK3A (human) (UniProt P49840); assay: KINOMEscan competition binding; conditions: compound 1.0 µM
HIPK4 (human) = HIPK4 (human) (UniProt Q8NE63); assay: KINOMEscan competition binding; conditions: compound 1.0 µM
ICK (human) = ICK (human) (UniProt Q9UPZ9); assay: KINOMEscan competition binding; conditions: compound 1.0 µM
[3] = system: KIT (human), P10721 [D816H]; assay: KINOMEscan competition binding; conditions: compound 1.0 µM
LCK (human) = LCK (human) (UniProt P06239); assay: KINOMEscan competition binding; conditions: compound 1.0 µM
LIMK1 (human) = LIMK1 (human) (UniProt P53667); assay: KINOMEscan competition binding; conditions: compound 1.0 µM
MAP2K7 (human) = MAP2K7 (human) (UniProt O14733); assay: KINOMEscan competition binding; conditions: compound 1.0 µM
MAP3K15 (human) = MAP3K15 (human) (UniProt Q6ZN16); assay: KINOMEscan competition binding; conditions: compound 1.0 µM
MAPK10 (human) = MAPK10 (human) (UniProt P53779); assay: KINOMEscan competition binding; conditions: compound 1.0 µM
MAPK4 (human) = MAPK4 (human) (UniProt P31152); assay: KINOMEscan competition binding; conditions: compound 1.0 µM
MARK4 (human) = MARK4 (human) (UniProt Q96L34); assay: KINOMEscan competition binding; conditions: compound 1.0 µM
MKNK1 (human) = MKNK1 (human) (UniProt Q9BUB5); assay: KINOMEscan competition binding; conditions: compound 1.0 µM
MST1R (human) = MST1R (human) (UniProt Q04912); assay: KINOMEscan competition binding; conditions: compound 1.0 µM
MYLK (human) = MYLK (human) (UniProt Q15746); assay: KINOMEscan competition binding; conditions: compound 1.0 µM
PAK3 (human) = PAK3 (human) (UniProt O75914); assay: KINOMEscan competition binding; conditions: compound 1.0 µM
[4] = system: PIK3CA (human), P42336 [E542K]; assay: KINOMEscan competition binding; conditions: compound 1.0 µM
[5] = system: PIK3CA (human), P42336 [M1043I]; assay: KINOMEscan competition binding; conditions: compound 1.0 µM
PIM1 (human) = PIM1 (human) (UniProt P11309); assay: KINOMEscan competition binding; conditions: compound 1.0 µM
PKN3 (M.tuberculosis) = PKN3 (M.tuberculosis) (UniProt Q6P5Z2); assay: KINOMEscan competition binding; conditions: compound 1.0 µM
PRKACA (human) = PRKACA (human) (UniProt P17612); assay: KINOMEscan competition binding; conditions: compound 1.0 µM
PRKD1 (human) = PRKD1 (human) (UniProt Q15139); assay: KINOMEscan competition binding; conditions: compound 1.0 µM
PRPF4B (human) = PRPF4B (human) (UniProt Q13523); assay: KINOMEscan competition binding; conditions: compound 1.0 µM
ROS1 (human) = ROS1 (human) (UniProt P08922); assay: KINOMEscan competition binding; conditions: compound 1.0 µM
SIK1 (human) = SIK1 (human) (UniProt P57059); assay: KINOMEscan competition binding; conditions: compound 1.0 µM
STK32B (human) = STK32B (human) (UniProt Q9NY57); assay: KINOMEscan competition binding; conditions: compound 1.0 µM
TGFBR2 (human) = TGFBR2 (human) (UniProt P37173); assay: KINOMEscan competition binding; conditions: compound 1.0 µM
KIT (human) = KIT (human) (UniProt P10721)

Sequence of CAMK2G (human) (Q13555 whole entry, looked up): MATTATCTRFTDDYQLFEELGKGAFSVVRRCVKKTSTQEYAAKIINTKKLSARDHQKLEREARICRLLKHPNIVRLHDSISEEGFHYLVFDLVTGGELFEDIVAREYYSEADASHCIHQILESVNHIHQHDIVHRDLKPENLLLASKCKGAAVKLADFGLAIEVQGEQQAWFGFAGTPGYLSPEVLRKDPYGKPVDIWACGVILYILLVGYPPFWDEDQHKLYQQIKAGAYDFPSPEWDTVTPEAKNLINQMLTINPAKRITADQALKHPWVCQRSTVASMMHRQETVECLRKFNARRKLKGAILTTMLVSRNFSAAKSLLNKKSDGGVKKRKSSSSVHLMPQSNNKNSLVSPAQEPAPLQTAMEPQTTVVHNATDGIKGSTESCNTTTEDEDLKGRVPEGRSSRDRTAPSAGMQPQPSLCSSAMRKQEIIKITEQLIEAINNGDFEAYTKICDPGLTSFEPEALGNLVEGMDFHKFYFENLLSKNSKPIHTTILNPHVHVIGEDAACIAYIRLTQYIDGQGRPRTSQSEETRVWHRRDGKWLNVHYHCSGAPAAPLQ
Sequence of MYLK (human) (Q15746 whole entry, looked up): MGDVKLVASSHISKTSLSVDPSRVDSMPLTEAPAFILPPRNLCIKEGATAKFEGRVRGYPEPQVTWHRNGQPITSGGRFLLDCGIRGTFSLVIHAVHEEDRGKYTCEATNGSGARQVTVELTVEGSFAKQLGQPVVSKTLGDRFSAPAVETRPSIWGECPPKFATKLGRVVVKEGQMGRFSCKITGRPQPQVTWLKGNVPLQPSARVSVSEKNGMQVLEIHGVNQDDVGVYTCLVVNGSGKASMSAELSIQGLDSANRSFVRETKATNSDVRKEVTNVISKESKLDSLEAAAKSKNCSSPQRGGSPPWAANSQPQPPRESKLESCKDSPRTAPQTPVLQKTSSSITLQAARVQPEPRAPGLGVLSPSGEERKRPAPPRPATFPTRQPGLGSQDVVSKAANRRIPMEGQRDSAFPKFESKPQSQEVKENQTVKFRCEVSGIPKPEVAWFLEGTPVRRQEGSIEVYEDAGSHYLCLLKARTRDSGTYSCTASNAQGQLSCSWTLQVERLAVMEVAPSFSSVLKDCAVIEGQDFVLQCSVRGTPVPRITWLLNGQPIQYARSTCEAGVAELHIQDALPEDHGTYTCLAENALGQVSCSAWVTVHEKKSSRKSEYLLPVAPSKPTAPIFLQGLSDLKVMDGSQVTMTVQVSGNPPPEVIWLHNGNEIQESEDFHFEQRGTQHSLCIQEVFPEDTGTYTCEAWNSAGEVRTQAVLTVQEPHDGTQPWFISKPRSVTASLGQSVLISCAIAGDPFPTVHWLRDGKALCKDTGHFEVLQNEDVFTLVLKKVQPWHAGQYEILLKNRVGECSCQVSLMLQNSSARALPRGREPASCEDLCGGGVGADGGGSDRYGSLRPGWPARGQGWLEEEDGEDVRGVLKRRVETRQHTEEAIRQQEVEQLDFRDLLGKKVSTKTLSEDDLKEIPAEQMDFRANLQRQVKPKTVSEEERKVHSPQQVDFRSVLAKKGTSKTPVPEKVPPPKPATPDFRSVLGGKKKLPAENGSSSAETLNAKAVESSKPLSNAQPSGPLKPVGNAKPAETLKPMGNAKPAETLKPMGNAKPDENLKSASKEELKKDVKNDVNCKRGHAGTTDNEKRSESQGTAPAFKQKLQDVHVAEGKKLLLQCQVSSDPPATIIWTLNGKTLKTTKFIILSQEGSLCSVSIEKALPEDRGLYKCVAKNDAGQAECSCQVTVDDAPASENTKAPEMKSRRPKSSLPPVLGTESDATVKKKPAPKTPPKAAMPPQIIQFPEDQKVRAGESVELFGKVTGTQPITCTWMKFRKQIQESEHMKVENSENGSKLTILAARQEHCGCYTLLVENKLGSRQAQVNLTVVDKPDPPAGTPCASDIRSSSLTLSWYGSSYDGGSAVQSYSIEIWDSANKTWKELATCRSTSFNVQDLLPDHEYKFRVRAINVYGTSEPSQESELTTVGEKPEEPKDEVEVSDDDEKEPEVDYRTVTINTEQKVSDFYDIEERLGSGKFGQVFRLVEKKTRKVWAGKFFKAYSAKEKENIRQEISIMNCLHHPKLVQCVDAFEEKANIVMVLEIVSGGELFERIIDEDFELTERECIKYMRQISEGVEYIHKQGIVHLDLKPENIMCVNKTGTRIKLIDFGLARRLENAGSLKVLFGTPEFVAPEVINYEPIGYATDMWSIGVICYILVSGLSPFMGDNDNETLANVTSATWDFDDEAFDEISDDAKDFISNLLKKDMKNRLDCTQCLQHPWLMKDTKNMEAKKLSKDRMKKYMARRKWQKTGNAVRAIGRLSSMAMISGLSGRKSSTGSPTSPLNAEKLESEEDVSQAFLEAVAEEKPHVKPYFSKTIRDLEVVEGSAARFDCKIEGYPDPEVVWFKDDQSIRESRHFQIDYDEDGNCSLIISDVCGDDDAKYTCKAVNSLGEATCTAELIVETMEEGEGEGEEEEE
Sequence of PRKD1 (human) (Q15139 whole entry, looked up): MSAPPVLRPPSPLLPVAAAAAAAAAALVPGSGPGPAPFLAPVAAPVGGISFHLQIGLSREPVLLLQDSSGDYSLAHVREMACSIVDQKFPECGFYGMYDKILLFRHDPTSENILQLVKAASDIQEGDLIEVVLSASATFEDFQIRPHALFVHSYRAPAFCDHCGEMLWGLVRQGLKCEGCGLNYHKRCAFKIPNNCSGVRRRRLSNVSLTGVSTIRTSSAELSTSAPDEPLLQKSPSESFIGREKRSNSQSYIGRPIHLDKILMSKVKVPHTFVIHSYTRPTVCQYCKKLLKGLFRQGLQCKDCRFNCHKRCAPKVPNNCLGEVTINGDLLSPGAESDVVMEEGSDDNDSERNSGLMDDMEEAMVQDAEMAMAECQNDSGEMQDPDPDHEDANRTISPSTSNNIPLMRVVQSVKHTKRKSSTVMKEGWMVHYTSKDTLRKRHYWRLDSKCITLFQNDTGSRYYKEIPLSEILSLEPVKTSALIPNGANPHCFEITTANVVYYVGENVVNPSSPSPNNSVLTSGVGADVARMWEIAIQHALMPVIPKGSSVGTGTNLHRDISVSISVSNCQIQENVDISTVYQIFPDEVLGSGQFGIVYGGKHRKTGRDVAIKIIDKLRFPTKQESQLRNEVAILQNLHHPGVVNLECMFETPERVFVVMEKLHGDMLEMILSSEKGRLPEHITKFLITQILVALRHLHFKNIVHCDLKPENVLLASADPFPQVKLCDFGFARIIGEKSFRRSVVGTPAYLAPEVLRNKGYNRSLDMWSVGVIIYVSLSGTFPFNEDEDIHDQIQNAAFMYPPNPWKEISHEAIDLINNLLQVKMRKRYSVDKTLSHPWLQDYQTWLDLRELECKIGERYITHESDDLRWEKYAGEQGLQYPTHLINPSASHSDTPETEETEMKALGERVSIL
Sequence of SIK1 (human) (P57059 whole entry, looked up): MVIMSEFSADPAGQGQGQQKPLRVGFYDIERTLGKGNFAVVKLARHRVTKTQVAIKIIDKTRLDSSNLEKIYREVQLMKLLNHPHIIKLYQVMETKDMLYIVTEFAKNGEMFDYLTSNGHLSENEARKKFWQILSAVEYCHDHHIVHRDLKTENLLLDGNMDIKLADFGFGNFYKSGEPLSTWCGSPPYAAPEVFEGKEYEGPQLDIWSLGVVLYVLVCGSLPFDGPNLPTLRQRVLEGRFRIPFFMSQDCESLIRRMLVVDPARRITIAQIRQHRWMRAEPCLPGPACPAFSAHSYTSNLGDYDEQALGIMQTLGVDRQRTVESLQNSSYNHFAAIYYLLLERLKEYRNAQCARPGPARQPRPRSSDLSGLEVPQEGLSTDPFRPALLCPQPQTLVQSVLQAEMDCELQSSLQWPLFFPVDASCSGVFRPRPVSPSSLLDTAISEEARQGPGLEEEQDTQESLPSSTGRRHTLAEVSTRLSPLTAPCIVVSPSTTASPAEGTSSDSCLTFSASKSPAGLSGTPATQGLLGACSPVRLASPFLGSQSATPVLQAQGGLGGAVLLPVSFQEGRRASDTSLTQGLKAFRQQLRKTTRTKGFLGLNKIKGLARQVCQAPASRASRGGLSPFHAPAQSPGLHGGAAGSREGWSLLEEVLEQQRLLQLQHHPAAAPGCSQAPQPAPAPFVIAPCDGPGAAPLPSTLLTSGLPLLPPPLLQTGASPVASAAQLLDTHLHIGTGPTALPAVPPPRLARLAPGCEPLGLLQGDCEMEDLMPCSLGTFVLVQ
Sequence of GSK3B (human) (P49841 whole entry, looked up): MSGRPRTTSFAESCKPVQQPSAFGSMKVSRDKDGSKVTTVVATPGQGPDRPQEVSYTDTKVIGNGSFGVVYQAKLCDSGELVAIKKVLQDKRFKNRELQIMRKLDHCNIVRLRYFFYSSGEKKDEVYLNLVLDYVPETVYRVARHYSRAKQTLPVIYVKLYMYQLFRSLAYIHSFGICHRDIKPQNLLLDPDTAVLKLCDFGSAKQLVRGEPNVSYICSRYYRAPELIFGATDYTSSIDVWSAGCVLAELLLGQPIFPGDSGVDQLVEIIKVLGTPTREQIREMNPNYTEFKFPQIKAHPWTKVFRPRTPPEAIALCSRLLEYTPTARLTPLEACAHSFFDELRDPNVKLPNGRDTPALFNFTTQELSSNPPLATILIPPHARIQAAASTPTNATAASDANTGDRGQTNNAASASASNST
Sequence of MAP2K7 (human) (O14733 whole entry, looked up): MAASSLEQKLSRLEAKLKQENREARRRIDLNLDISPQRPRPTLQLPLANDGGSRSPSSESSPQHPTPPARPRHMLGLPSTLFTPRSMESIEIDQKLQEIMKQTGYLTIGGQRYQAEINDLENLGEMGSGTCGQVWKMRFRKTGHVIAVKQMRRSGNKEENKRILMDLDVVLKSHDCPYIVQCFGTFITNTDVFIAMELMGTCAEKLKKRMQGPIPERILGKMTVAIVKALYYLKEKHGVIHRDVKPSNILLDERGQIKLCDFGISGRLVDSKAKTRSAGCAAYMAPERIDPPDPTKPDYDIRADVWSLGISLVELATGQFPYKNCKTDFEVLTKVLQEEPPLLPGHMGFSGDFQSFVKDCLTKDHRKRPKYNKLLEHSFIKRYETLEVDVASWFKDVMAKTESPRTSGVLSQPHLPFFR

CN(C)C/C=C/C(=O)Nc1cccc(C(=O)Nc2ccc(Nc3nccc(-c4c(-c5ccccc5)nn5ccccc45)n3)cc2)c1
IC50 (GSK3B (human)): 0.032 µM
IC50 (MAP3K7 (human)): 0.351 µM
IC50 (MAPK8 (human)): 0.039 µM
kinase still bound, per cent of control [1]: 14%
kinase still bound, per cent of control (AKT1 (human)): 100%
kinase still bound, per cent of control (BLK (human)): 5.9%
kinase still bound, per cent of control (BRSK2 (human)): 100%
kinase still bound, per cent of control (CAMK2G (human)): 100%
kinase still bound, per cent of control (CSNK1D (human)): 3.1%
kinase still bound, per cent of control (DAPK1 (human)): 94%
kinase still bound, per cent of control (DAPK3 (human)): 93%
kinase still bound, per cent of control [2]: 7.8%
kinase still bound, per cent of control (EPHB6 (human)): 9.4%
kinase still bound, per cent of control (FES (human)): 100%
kinase still bound, per cent of control (FLT1 (human)): 9.3%
kinase still bound, per cent of control (GRK1 (human)): 100%
kinase still bound, per cent of control (GSK3A (human)): 38%
kinase still bound, per cent of control (HIPK4 (human)): 70%
kinase still bound, per cent of control (ICK (human)): 100%
kinase still bound, per cent of control [3]: 86%
kinase still bound, per cent of control (LCK (human)): 8.6%
kinase still bound, per cent of control (LIMK1 (human)): 100%
kinase still bound, per cent of control (MAP2K7 (human)): 89%
kinase still bound, per cent of control (MAP3K15 (human)): 47%
kinase still bound, per cent of control (MAPK10 (human)): 0%
kinase still bound, per cent of control (MAPK4 (human)): 94%
kinase still bound, per cent of control (MARK4 (human)): 100%
kinase still bound, per cent of control (MKNK1 (human)): 96%
kinase still bound, per cent of control (MST1R (human)): 100%
kinase still bound, per cent of control (MYLK (human)): 77%
kinase still bound, per cent of control (PAK3 (human)): 52%
kinase still bound, per cent of control [4]: 91%
kinase still bound, per cent of control [5]: 100%
kinase still bound, per cent of control (PIM1 (human)): 84%
kinase still bound, per cent of control (PKN3 (M.tuberculosis)): 100%
kinase still bound, per cent of control (PRKACA (human)): 99%
kinase still bound, per cent of control (PRKD1 (human)): 20%
kinase still bound, per cent of control (PRPF4B (human)): 100%
kinase still bound, per cent of control (ROS1 (human)): 100%
kinase still bound, per cent of control (SIK1 (human)): 29%
kinase still bound, per cent of control (STK32B (human)): 30%
kinase still bound, per cent of control (TGFBR2 (human)): 10%
IC50 (KIT (human)): 1.32 µM

Source: the kinase profiling compilation of Christmann-Franck et al. (2016)
